The values below come from patent publication US7045298B2, “Method for identifying or screening agonist and antagonist to PPAR” (Tanabe Seiyaku Co., Ltd., priority 1997, dated 2006).

Assay [1] has as its target T1, ligand-dependent interaction between PPARγ and CBP (Homo sapiens, UniProt P37231).
T1 construct: expressed in transfected cells; host or cells: yeast cell strain SFY526 (Clontech), transformed with pGBT9-PPARγ2 and pGAD424-CBP
In words: Yeast two-hybrid detection of ligand-dependent interaction between PPARγ and CBP (β-galactosidase reporter). The format is cell-based. To be noted: for β-galactosidase activity (lacZ gene expression): yeast SFY526 containing both plasmids pGBT9-PPARγ2 and pGAD424-CBP, substance added at 10^−6M (FIG. 2A/3A), cultivation 4 to 5 hours; for concentration dependence of the increase in β-galactosidase activity: yeast containing both plasmids, varying concentrations of substance (FIG. 2B/3B). An excerpt: The 1574 base pair fragment containing PPARγ2 gene obtained in (1) above was cleaved at the XhoI recognition site designed at the terminus and the BamHI recognition site in the base sequence. The fragments obtained were inserted into the BamHI-SalI site of yeast expression vector pGBT9 (available from Clontech Co., vector for yeast two hybrid system) containing the gene of the DNA binding domain of transcription factor GAL4 (No. 1 to 147 amino acid residues of GAL4). As a result, plasmid pGBT9-PPARγ2 (FIG. 1A) for expressing a fused protein comprising the portion downstream of the No. 181 amino acid residue of human PPARγ2 (ligand binding domain) and the DNA binding domain of GAL4 was obtained. In FIG. 1A, GAL4 bd stands for a GAL4 DNA binding domain sequence, ^PADH1 stands for alcohol dehydrogenase gene promoter, ^TADH1 stands for an alcohol dehydrogenase gene terminator, Amp^r stands for an ampicillin resistant gene, ColE1 ori stands for a collicin E1 replication start point, and 2 μ ori stands for a 2 μ replication start point.
The 1411 base pair fragment containing CBP gene obtained in (1) above (N-terminal domain) was cleaved at the BamHI recognition site and BglII recognition site designed at the termini. The fragments obtained were inserted into the BamHI-BglII site of yeast expression vector pGAD424 (available from Clontech Co., vector for yeast two hybrid system) containing the gene of the transcriptional activation domain of GAL4 (No. 768 to 881 amino acid residues of GAL4). As a result, plasmid pGAD424-CBP (FIG. 1B) for expressing a fused protein comprising the portion of the No. 1 to 464 amino acid residues of mouse CBP (N-terminal domain) and the transcriptional activation domain of GAL4 was obtained. In FIG. 1B, GAL4 ad stands for GAL4 transcriptional activation domain sequence and others have the same meanings as in FIG. 1A.
Using yeast cell strain SFY526 (available from Clontech Co.), the fused protein expression plasmids pGBT9-PPARγ2 and pGAD424-CBP obtained in (2) and (3) above were introduced therein. The cell strain SFY526 (genotype was MATa, ura3-52, his3-200, ade2-101, lys2-801, trp1-901, leu2-3, 112, canr, gal4-542, gal80-538, URA3::GAL1-lacZ) had incorporated in the chromosome a fused gene of GAL1 and lacZ and is a cell strain having deletion mutation relative to GAL4 gene (Bartel et al., Bio Techniques, vol. 14, pp. 920–924, 1993). The transformation was performed by the lithium acetate method and incubated in a synthetic medium depleted of tryptophan and leucine which are selection markers for the respective plasmids to perform screening to obtain a transformant in which only one of the plasmids was introduced and a transformant in which the both plasmids were introduced.
The yeast transformant containing both of the plasmids pGBT9-PPARγ and pGAD424-CBP or the yeast transformant containing only one of the plasmids was cultivated in YPD medium (liquid medium). Upon cultivation, 15-deoxy-Δ^12,14-prostaglandin J2, which is a ligand of PPARγ2 in a living body, diluted with YPD medium was added (or not added). 15-deoxy-Δ^12,14-prostaglandin J2 (hereinafter abbreviated to as “15d-PGJ2”) used was commercially available (available from CAYMAN CHEMICALS, CO., U.S.A.). The cultivation was performed for 4 to 5 hours. After the cultivation, the yeast cells were recovered by centrifugation and β-galactosidase activity was measured. […]

A further assay deals with KK-Ay mouse. To be noted: Japanese Provisional Patent Publications No. 56675/1989 and No. 167225/1990; cited from earlier work.

T1 sequence (P37231 182-505): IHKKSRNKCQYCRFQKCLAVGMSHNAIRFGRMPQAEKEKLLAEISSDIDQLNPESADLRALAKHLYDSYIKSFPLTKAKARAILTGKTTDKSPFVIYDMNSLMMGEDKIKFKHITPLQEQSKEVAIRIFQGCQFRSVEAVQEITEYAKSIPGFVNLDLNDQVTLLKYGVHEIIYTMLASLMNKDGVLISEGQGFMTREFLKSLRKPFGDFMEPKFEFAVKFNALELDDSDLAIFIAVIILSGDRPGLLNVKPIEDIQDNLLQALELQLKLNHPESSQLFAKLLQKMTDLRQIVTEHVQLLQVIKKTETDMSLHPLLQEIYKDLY
T1 sequence (P45481 1-464 partner): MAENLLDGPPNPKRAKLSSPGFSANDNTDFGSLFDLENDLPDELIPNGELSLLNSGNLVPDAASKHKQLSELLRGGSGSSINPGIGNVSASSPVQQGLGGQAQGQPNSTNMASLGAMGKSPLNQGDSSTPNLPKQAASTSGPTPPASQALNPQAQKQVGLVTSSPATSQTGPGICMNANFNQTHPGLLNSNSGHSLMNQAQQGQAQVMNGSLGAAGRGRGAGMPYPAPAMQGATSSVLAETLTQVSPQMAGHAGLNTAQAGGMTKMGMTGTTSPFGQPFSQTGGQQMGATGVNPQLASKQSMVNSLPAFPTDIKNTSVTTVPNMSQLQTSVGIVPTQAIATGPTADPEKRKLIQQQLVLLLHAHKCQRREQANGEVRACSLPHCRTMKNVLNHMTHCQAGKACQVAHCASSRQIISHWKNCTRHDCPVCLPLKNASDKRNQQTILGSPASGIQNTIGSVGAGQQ

Turning to `CCCCC/C=C/C=C1/C(=O)C=C[C@@H]1C/C=C\CCCC(=O)O` [15d-PGJ2, 15-deoxy-Δ^12,14-prostaglandin J2], in assay [1], the “β-galactosidase activity (lacZ gene expression)” value is reported as “an increase in β-galactosidase activity” and the “concentration dependence of the increase in β-galactosidase activity” value is “dependent on the concentration of 15d-PGJ2”.
As to `O=C1NC(=O)C(Cc2ccc3oc(Cc4ccc5ccccc5c4)nc3c2)S1` (stereo not drawn) [T-174, 5-[[2-(2-naphthalenylmethyl)-5-benzoxazolyl]methyl]-2,4-thiazolidinedione], in assay [1] (conclusion from ligand-dependent PPARγ-CBP interaction in yeast two-hybrid system), the “identification as agonist for PPARγ” value was “identified as an agonist acting as a ligand to PPARγ”. Further, in assay [1], the “β-galactosidase activity (lacZ gene expression)” value is given as “an increase in β-galactosidase activity was observed only in the yeast containing both of the plasmids” and the “concentration dependence of the increase in β-galactosidase activity” value is “dependent on the concentration of T-174”. Also, the hypoglycemic effect entry in the assay with KK-Ay mouse is given as “hypoglycemic effect”.
